Molecular target: T1, human mAChR M4 (Homo sapiens, UniProt P08173)
T1 construct: expressed in transfected cells
T1 sequence (P08173 1-479): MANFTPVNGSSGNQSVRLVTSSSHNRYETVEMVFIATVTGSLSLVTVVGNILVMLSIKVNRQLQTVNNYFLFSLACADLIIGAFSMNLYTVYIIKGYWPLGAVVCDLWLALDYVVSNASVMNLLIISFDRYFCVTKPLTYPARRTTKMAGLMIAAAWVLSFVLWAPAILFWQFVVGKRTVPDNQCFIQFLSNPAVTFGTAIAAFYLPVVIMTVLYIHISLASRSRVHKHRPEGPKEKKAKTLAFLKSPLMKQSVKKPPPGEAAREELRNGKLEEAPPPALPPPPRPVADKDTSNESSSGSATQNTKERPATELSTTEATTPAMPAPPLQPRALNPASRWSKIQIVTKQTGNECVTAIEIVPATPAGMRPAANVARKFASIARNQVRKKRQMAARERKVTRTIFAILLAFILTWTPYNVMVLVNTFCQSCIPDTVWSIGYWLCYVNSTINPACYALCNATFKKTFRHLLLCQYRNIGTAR
Test: mAChR M4 cell-based functional assay (calcium mobilization, CHO-K1 hM4-Gqi5 cells)
Details: for Emax at 30 µM: CHO-K1, % ACh maximum at 30 μM, human M4; for EC50: positive allosteric modulator activity, increase in the EC20 acetylcholine response, CHO-K1 hM4-Gqi5 cells, read-out: Human M4 EC50
How it was run: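 Fluorescent calcium read-out (Fluo-4 AM, FDSS, 1 Hz) in hM4-Gqi5 CHO-K1 cells, 11-point 1:3 compound series. Agonism scored on compound addition, PAM activity as increase of the 144 s EC20 acetylcholine response, antagonism as decrease of the 230 s EC80 response; four-parameter logistic fits give EC50 and Emax.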

Row | SMILES | Emax at 30 µM [%] | EC50 [nM]
1 | Cc1cc(C(=O)N2CC(F)C2)nnc1N1CCc2ncc(N3CCO[C@H](C)C3)cc2C1 [Example 572, (R)-(3-fluoroazetidin-1-yl)(5-methyl-6-(3-(2-methylmorpholino)-7,8-dihydro-1,6-naphthyridin-6(5H)-yl)pyridazin-3-yl)methanone] | 87 | 51
2 | Cc1cc(C(=O)NCc2ccccc2)cnc1N1CCc2ncccc2C1 [compound 70, N-benzyl-6-(7,8-dihydro-5H-1,6-naphthyridin-6-yl)-5-methyl-pyridine-3-carboxamide] | 80 | 2930
3 | Cc1cc(C(=O)NC2CC2)cnc1N1CCc2ncccc2C1 [compound 64, N-cyclopropyl-6-(7,8-dihydro-5H-1,6-naphthyridin-6-yl)-5-methyl-pyridine-3-carboxamide] | 59 | ≥ 10000
4 | Cc1cnc2c(c1)CN(c1ncc(C(=O)Nc3ccncc3)cc1C)CC2 [Example 438, 5-methyl-6-(3-methyl-7,8-dihydro-1,6-naphthyridin-6(5H)-yl)-N-(pyridin-4-yl)nicotinamide] | 88 | 517
5 | Cc1cc(C(=O)N2CC(F)C2)nnc1N1CCc2ncc(Nc3ccnn3C)cc2C1 [Example 559, (3-fluoroazetidin-1-yl)(5-methyl-6-(3-((1-methyl-1H-pyrazol-5-yl)amino)-7,8-dihydro-1,6-naphthyridin-6(5H)-yl)pyridazin-3-yl)methanone] | 73 | 64
6 | Cc1cc(C(=O)NC2CCOCC2)cnc1N1CCc2ncccc2C1 [compound 122, 6-(7,8-dihydro-5H-1,6-naphthyridin-6-yl)-5-methyl-N-tetrahydropyran-4-yl-pyridine-3-carboxamide] | 55 | ≥ 10000
7 | Cc1nc(Cl)c(C)c(N2CCc3ncc(-c4cnn(C)c4)cc3C2)n1 [compound 92, 6-(6-chloro-2,5-dimethyl-pyrimidin-4-yl)-3-(1-methylpyrazol-4-yl)-7,8-dihydro-5H-1,6-naphthyridine] | 82 | 218
8 | Cc1cc(C#N)nnc1N1CCc2ncc(Nc3ccnn3C)cc2C1 [Example 311, 5-methyl-6-(3-((1-methyl-1H-pyrazol-5-yl)amino)-7,8-dihydro-1,6-naphthyridin-6(5H)-yl)pyridazine-3-carbonitrile] | 94 | 239
9 | Cc1nc(N2CCCC2)c(C)c(N2CCc3ncc(-c4ccc(F)nc4)cc3C2)n1 [compound 223, 6-(2,5-dimethyl-6-(pyrrolidin-1-yl)pyrimidin-4-yl)-3-(6-fluoropyridin-3-yl)-5,6,7,8-tetrahydro-1,6-naphthyridine] | 56 | 3290
10 | Cc1nc(Cl)c(C)c(N2CCc3ncc(Nc4cccnc4F)cc3C2)n1 [compound 251, 6-(6-chloro-2,5-dimethylpyrimidin-4-yl)-N-(2-fluoropyridin-3-yl)-5,6,7,8-tetrahydro-1,6-naphthyridin-3-amine] | 93 | 197
11 | Cc1cc(C(=O)N2CCCC2)nnc1N1CCc2ncc(N3CCO[C@H](C)C3)cc2C1 [Example 536, (R)-(5-methyl-6-(3-(2-methylmorpholino)-7,8-dihydro-1,6-naphthyridin-6(5H)-yl)pyridazin-3-yl)(pyrrolidin-1-yl)methanone] | 86 | 1150
12 | Cc1cc(C(=O)NCc2cncs2)nnc1N1CCc2ncc(N3CCCn4nccc43)cc2C1 [Example 489, 6-(3-(6,7-dihydropyrazolo[1,5-a]pyrimidin-4(5H)-yl)-7,8-dihydro-1,6-naphthyridin-6(5H)-yl)-5-methyl-N-(thiazol-5-ylmethyl)pyridazine-3-carboxamide] | 95 | 5
13 | Cc1cc(C(=O)NCc2cncs2)cnc1N1CCc2ncc(Nc3ccnn3C)cc2C1 [Example 449, 5-methyl-6-(3-((1-methyl-1H-pyrazol-5-yl)amino)-7,8-dihydro-1,6-naphthyridin-6(5H)-yl)-N-(thiazol-5-ylmethyl)nicotinamide] | 105 | 84
14 | Cc1c(C(=O)NCc2cccnc2)nnc(N2CCc3ncccc3C2)c1C [compound 136, 6-(7,8-dihydro-5H-1,6-naphthyridin-6-yl)-4,5-dimethyl-N-(3-pyridylmethyl)pyridazine-3-carboxamide] | 88 | 1880
15 | Cc1c(C#N)nnc(N2CCc3ncc(-c4ccc(N5CC(C(C)(C)O)C5)nc4)cc3C2)c1C [Example 329, 6-(3-(6-(3-(2-hydroxypropan-2-yl)azetidin-1-yl)pyridin-3-yl)-7,8-dihydro-1,6-naphthyridin-6(5H)-yl)-4,5-dimethylpyridazine-3-carbonitrile] | 66 | 554
16 | Cc1nc(Cl)c(C)c(N2CCc3ncc(Oc4cccnc4)cc3C2)n1 [compound 207, 6-(6-chloro-2,5-dimethyl-pyrimidin-4-yl)-3-(3-pyridyloxy)-7,8-dihydro-5H-1,6-naphthyridine] | 86 | 370

Second part, the compound after the results:

Row | Emax at 30 µM [%] | EC50 [nM] | SMILES
17 | 42 | 605 | Cc1cc(Nc2cnc3c(c2)CN(c2ncc(C#N)cc2C)CC3)n(CCC(C)C)n1 [Example 313, 6-(3-((1-isopentyl-3-methyl-1/- pyrazol-5-yl)amino)-7,8-dihydro-1,6-naphthyridin-6(5H)-yl)-5-methylnicotinonitrile]
18 | 97 | 1640 | Cc1cc(C(=O)NCc2csc3ccccc23)cnc1N1CCc2ncc(C(F)(F)F)cc2C1 [Example 447, N-(benzo[b]thiophen-3-ylmethyl)-5-methyl-6-(3-(trifluoromethyl)-7,8-dihydro-1,6-naphthyridin-6(5H)-yl)nicotinamide]
19 | 75 | 4350 | COc1nc(N2CCc3ncc(C(F)(F)F)cc3C2)c(C)cc1C#N [Example 371, 2-methoxy-5-methyl-6-(3-(trifluoromethyl)-7,8-dihydro-1,6-naphthyridin-6(5H)-yl)nicotinonitrile]
20 | 83 | 415 | Cc1cc(C#N)cnc1N1Cc2cc(N3CCOCC3)cnc2C(C)C1 (stereo not drawn) [Example 405, 5-methyl-6-(8-methyl-3-morpholino-7,8-dihydro-1,6-naphthyridin-6(5H)-yl)nicotinonitrile]
21 | 102 | 958 | COCCOc1cnc2c(c1)CN(c1ncc(C#N)cc1C)CC2 [Example 434, 6-(3-(2-methoxyethoxy)-7,8-dihydro-1,6-naphthyridin-6(5H)-yl)-5-methylnicotinonitrile]
22 | 47 | 2250 | Cc1cc(C#N)cnc1N1CCc2ncc(N3CCCn4ccnc43)cc2C1 [Example 411, 6-(3-(6,7-dihydroimidazo[1,2-a]pyrimidin-8(5H)-yl)-7,8-dihydro-1,6-naphthyridin-6(5H)-yl)-5-methylnicotinonitrile]
23 | 102 | 537 | Cc1cc(C(N)=O)cnc1N1CCc2ncc(C(F)(F)F)cc2C1 [Example 448, 5-methyl-6-(3-(trifluoromethyl)-7,8-dihydro-1,6-naphthyridin-6(5H)-yl)nicotinamide]
24 | 95 | 577 | Cc1cc(C#N)cnc1N1CCc2ncc(C(C)(O)C(F)(F)F)cc2C1 (stereo not drawn) [Example 426, 5-methyl-6-(3-(1,1,1-trifluoro-2-hydroxypropan-2-yl)-7,8-dihydro-1,6-naphthyridin-6(5H)-yl)nicotinonitrile]

Reference: patent publication US20250230155A1 (Vanderbilt University, priority 2021, published 2025)
